Experimental data published in PubChem BioAssay (NCI).
“And” between values parts separate entries of the source, which are not always exact repeats. Equal values may be shown once.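 Assay format: 96-well plates, 48-hour exposure. At the GI50, growth is halved. TGI: concentration producing complete growth inhibition.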

Legend:
Test in all cases: DTP human tumour cell line panel, 48 h
[1] = test system: ACHN renal
[2] = test system: HCT-15 colon
[3] = test system: HL-60(TB) leukemia
[4] = test system: K-562 leukemia
[5] = test system: MALME-3M melanoma
[6] = test system: NCI-H460 lung
[7] = test system: RPMI-8226 leukemia
[8] = test system: SF-295 CNS
[9] = test system: SW-620 colon
[10] = test system: U251 CNS

Cc1cc2c(cc1Cl)SC(N(N(C)C)S(=O)(=O)c1ccc(Cl)cc1)=NS2(=O)=O
GI50 [1]: 32.1 µM
TGI [1]: > 100 µM
GI50 [2]: 25.9 µM
TGI [2]: > 100 µM
GI50 [3]: 35.2 µM
TGI [3]: 89.8 µM
GI50 [4]: 31.8 µM
TGI [4]: > 100 µM
GI50 [5]: 22 µM
TGI [5]: 62 µM
GI50 [6]: 16.9 µM
TGI [6]: 45.5 µM
GI50 [7]: 12.5 µM
TGI [7]: > 100 µM
GI50 [8]: 30.3 µM
TGI [8]: > 100 µM
GI50 [9]: 32.5 µM
TGI [9]: > 100 µM
GI50 [10]: 26.3 µM
TGI [10]: > 100 µM

O=C1OC(O)[C@@H]2[C@H]1[C@H]1CC[C@@H]2O1 (stereo partly drawn)
GI50 [1]: > 89.6 µM
TGI [1]: > 100 µM
GI50 [2]: > 100 µM
TGI [2]: > 100 µM
GI50 [3]: > 42.3 µM
TGI [3]: > 100 µM
GI50 [4]: > 100 µM
TGI [4]: > 100 µM
GI50 [5]: 28.1 µM
TGI [5]: 77.3 µM
GI50 [6]: > 100 µM
TGI [6]: > 100 µM
GI50 [7]: 49.2 µM
TGI [7]: > 100 µM
GI50 [8]: > 100 µM
TGI [8]: > 100 µM
GI50 [9]: 52 µM
TGI [9]: > 100 µM
GI50 [10]: > 100 µM
TGI [10]: > 100 µM

CN(C)CCSC1=Nc2ccc(Cl)cc2C(c2ccccc2Cl)=NC1
GI50 [1]: 14 µM and > 100 µM
TGI [1]: 26.9 µM and > 100 µM
GI50 [2]: 12 µM and 37.8 µM
TGI [2]: 25.2 µM and > 100 µM
TGI [3]: 66.5 µM and 80.4 µM
TGI [4]: > 100 µM
GI50 [5]: 13.5 µM and > 100 µM
TGI [5]: 28.3 µM and > 100 µM
GI50 [6]: 14.9 µM and 68.1 µM
TGI [6]: 30.7 µM and > 100 µM
GI50 [7]: 16.2 µM and 49.4 µM
TGI [7]: 40.6 µM and > 100 µM
GI50 [8]: 16 µM and 68.7 µM
TGI [8]: 31.5 µM and > 100 µM
GI50 [9]: 16.6 µM and 33.5 µM
TGI [9]: 34 µM and > 100 µM
GI50 [10]: 13.6 µM and 89.5 µM
TGI [10]: 28.1 µM and > 100 µM

CCN1CCN(c2nc(C)cc(N(CCNc3ccnc4cc(Cl)ccc34)Cc3ccc4c(c3)OCO4)n2)CC1
GI50 [1]: 2.26 µM
TGI [1]: 5.26 µM
GI50 [2]: 1.46 µM
TGI [2]: 3.26 µM
GI50 [3]: 2.1 µM
TGI [3]: 4.22 µM
GI50 [4]: 0.913 µM
TGI [4]: 2.76 µM
GI50 [5]: 1.84 µM
TGI [5]: 3.44 µM
GI50 [6]: 1.94 µM
TGI [6]: 4.7 µM
GI50 [7]: 1.31 µM
TGI [7]: 3.76 µM
GI50 [8]: 1.76 µM
TGI [8]: 3.38 µM
GI50 [9]: 1.62 µM
TGI [9]: 3.55 µM
GI50 [10]: 1.56 µM
TGI [10]: 3.12 µM

CC(C)=Cc1cc(C(=O)Nc2ccc(Cl)c(Cl)c2)nc(N)n1
TGI [1]: > 100 µM
TGI [2]: > 100 µM
TGI [3]: > 100 µM
TGI [4]: > 100 µM
TGI [5]: > 100 µM
TGI [6]: > 100 µM
TGI [7]: > 100 µM
TGI [8]: > 100 µM
TGI [9]: > 100 µM
TGI [10]: > 100 µM

CC[C@H](Nc1ncnc2nc[nH]c12)c1oc2ccccc2c(=O)c1-c1cccc(F)c1
GI50 [1]: 21.6 µM
TGI [1]: > 100 µM
GI50 [2]: 26.9 µM
TGI [2]: > 100 µM
GI50 [3]: 11 µM
TGI [3]: 42.5 µM
GI50 [4]: 17.4 µM
TGI [4]: > 100 µM
GI50 [5]: 25.1 µM
TGI [5]: > 100 µM
GI50 [6]: 18.8 µM
TGI [6]: 58.8 µM
GI50 [7]: 14.5 µM
TGI [7]: > 100 µM
GI50 [8]: 18.4 µM
TGI [8]: > 100 µM
GI50 [9]: 32.5 µM
TGI [9]: > 100 µM
GI50 [10]: 32.2 µM
TGI [10]: > 100 µM

C=C(Br)C(C)(Br)CCC(Br)C(C)(C)Cl (stereo not drawn)
TGI [1]: 35.6 µM
TGI [2]: 32.7 µM
TGI [3]: 16.2 µM
TGI [4]: > 47.5 µM
TGI [5]: 39.3 µM
TGI [6]: 36.6 µM
TGI [7]: 58.4 µM
TGI [8]: 32.7 µM
TGI [9]: 30.4 µM
TGI [10]: 29.7 µM

O=S(=O)(CCn1c(Sc2ccccc2)c(Sc2ccccc2)c2ccccc21)c1ccccc1
TGI [1]: > 100 µM
TGI [2]: > 100 µM
TGI [3]: > 100 µM
TGI [4]: > 100 µM
TGI [5]: > 100 µM
TGI [6]: > 100 µM
TGI [7]: > 100 µM
TGI [8]: > 100 µM
TGI [9]: > 100 µM
TGI [10]: > 100 µM

COC1=CC(=O)C(C2CC(=O)c3c(O)cc(O)cc3O2)=CC1=O (stereo not drawn)
TGI [1]: 29.7 µM
TGI [2]: 55.3 µM
TGI [3]: > 21.3 µM
TGI [4]: 40.8 µM
TGI [5]: 34.8 µM
TGI [6]: 51.8 µM
TGI [7]: > 100 µM
TGI [8]: 35.1 µM
TGI [9]: 44.4 µM
TGI [10]: 37.1 µM

Cn1cnc([N+](=O)[O-])c1S(=O)(=O)Oc1cccc2ccccc12
GI50 [1]: 1.97 µM
TGI [1]: 4.21 µM
GI50 [2]: 1.97 µM
TGI [2]: 4.72 µM
GI50 [3]: 5.34 µM
TGI [3]: 31.4 µM
GI50 [4]: 1.6 µM
TGI [4]: 8.63 µM
GI50 [5]: 1.83 µM
TGI [5]: 4.98 µM
GI50 [6]: 14.7 µM
TGI [6]: 36 µM
GI50 [7]: 2.68 µM
TGI [7]: 6.69 µM
GI50 [8]: 21.2 µM
TGI [8]: > 65.3 µM
GI50 [9]: 1.36 µM
TGI [9]: 2.89 µM
GI50 [10]: 8.89 µM
TGI [10]: 34.7 µM

CCCCCCCC(=O)SCC/C=C/[C@@H]1CC(=O)NCc2cc(ccn2)C2=N[C@@](C)(CS2)C(=O)N[C@@H](C(C)C)C(=O)O1
GI50 [1]: 0.0433 µM
TGI [1]: 0.434 µM
GI50 [2]: 0.141 µM
TGI [2]: > 33.3 µM
GI50 [3]: 0.0242 µM
TGI [3]: > 33.3 µM
GI50 [4]: 0.0248 µM
TGI [4]: > 33.3 µM
GI50 [5]: 0.00864 µM
TGI [5]: > 33.3 µM
GI50 [6]: 0.00754 µM
TGI [6]: > 11.3 µM
GI50 [7]: 0.116 µM
TGI [7]: > 33.3 µM
GI50 [8]: 0.0166 µM
TGI [8]: 0.147 µM
GI50 [9]: 0.0749 µM
TGI [9]: 2.49 µM
GI50 [10]: 0.0291 µM
TGI [10]: 0.309 µM

NC1(C(=O)OCc2ccccc2)CCCC1
TGI [1]: 34.1 µM
TGI [2]: 60.8 µM
TGI [3]: 54.5 µM
TGI [4]: 59.6 µM
TGI [5]: 31.8 µM
TGI [6]: > 100 µM
TGI [7]: 68.2 µM
TGI [8]: 34.7 µM
TGI [9]: > 100 µM
TGI [10]: 40.3 µM

CC(=O)/C(=C\c1cccc([N+](=O)[O-])c1)C(=O)Nc1ccccc1C
TGI [1]: > 100 µM
TGI [2]: > 100 µM
TGI [3]: 57.9 µM
TGI [4]: > 100 µM
TGI [5]: > 100 µM
TGI [6]: > 100 µM
TGI [7]: > 100 µM
TGI [8]: > 100 µM
TGI [9]: > 100 µM
TGI [10]: > 100 µM

CCCCCCCCC/C=C1\CCC(CN2CCOCC2)C1=O (stereo not drawn)
TGI [1]: 16.5 µM
TGI [2]: 7.05 µM
TGI [3]: 4.38 µM
TGI [4]: 15.6 µM
TGI [5]: 19 µM
TGI [6]: 21.1 µM
TGI [7]: 1.08 µM
TGI [8]: 20 µM
TGI [9]: 5.43 µM
TGI [10]: 3.73 µM

COc1ccc(-c2nnc(COc3ccc(NC(=O)Nc4cc(C(F)(F)F)cc(C(F)(F)F)c4)cc3F)o2)cc1
GI50 [1]: 2.54 µM
TGI [1]: 10.1 µM
GI50 [2]: 2.01 µM
TGI [2]: 6.06 µM
GI50 [3]: 2.34 µM
TGI [3]: 6.02 µM
GI50 [4]: 2.66 µM
TGI [4]: 13.5 µM
GI50 [5]: 1.85 µM
TGI [5]: 4.77 µM
GI50 [6]: 1.66 µM
TGI [6]: 4.38 µM
GI50 [7]: 1.35 µM
TGI [7]: 4.2 µM
GI50 [8]: 2.11 µM
TGI [8]: 5.21 µM
GI50 [9]: 2.19 µM
TGI [9]: 5.72 µM
GI50 [10]: 1.54 µM
TGI [10]: 3.45 µM

CCOC(=O)c1cc2nc3ccccc3c(=O)n2c2ccccc12
TGI [1]: > 10 µM
TGI [2]: > 10 µM
TGI [3]: > 10 µM
TGI [4]: > 10 µM
TGI [5]: > 10 µM
TGI [6]: > 10 µM
TGI [7]: > 10 µM
TGI [8]: > 10 µM
TGI [9]: > 10 µM
TGI [10]: > 10 µM
